Measurements: paper PMC3022755, “HP1 Recruits Activity-Dependent Neuroprotective Protein to H3K9me3 Marked Pericentromeric Heterochromatin for Silencing of Major Satellite Repeats” (PLoS ONE, 2011)
Where no end group is shown, it is not given here. [ ]: non-standard residue; d: D form. The star is where a group is joined. Biotin = O=C1N[C@H]2[C@H](CS[C@H]2CCCCC(=O)*)N1; Lys(Me3) = C[N+](C)(C)CCCC[C@H](N)C(=O)O; d = 2'-deoxy (DNA)

Assays:
HP1 = experiment: ADNP peptide pulldown of HeLa S3 nuclear extract, western blot; assay type: binding
ADNP = experiment: siRNA knockdown, western blot; assay type: cell-based, mouse; conditions: NIH3T3, vs scrambled siRNA and untransfected (mock)
major satellite repeats = experiment: Major satellite repeat transcripts, real time PCR; assay type: cell-based, mouse; conditions: ADNP knockdown NIH3T3; relative to GAPDH; vs scrambled siRNA or mock; triplicate
H3K9me3 = H3K9me3 levels and distribution after ADNP knockdown; assay type: cell-based, mouse; conditions: NIH3T3, ADNP knockdown; western blot and immunofluorescence
HP1α, HP1β and HP1γ = experiment: HP1 distribution after ADNP knockdown; assay type: cell-based, mouse; conditions: NIH3T3, ADNP knockdown; immunofluorescence
H3K27me1 = H3K27me1 levels and distribution after ADNP knockdown; assay type: cell-based, mouse; conditions: NIH3T3, ADNP knockdown; western blot and immunofluorescence
[1] = tested on: major satellite repeat sequences; experiment: CpG methylation, Southern blot after TaiI digestion; assay type: cell-based, mouse; conditions: NIH3T3, ADNP knockdown
H4K20me3 = H4K20me3 levels and distribution after ADNP knockdown; assay type: cell-based, mouse; conditions: NIH3T3, ADNP knockdown; western blot and immunofluorescence

Row | Substance | HP1 binding (HP1) | ADNP protein levels (ADNP) | level of major satellite transcripts (major satellite repeats) | effects on levels and distribution of H3K9me3 (H3K9me3) | distribution of HP1α, HP1β and HP1γ (HP1α, HP1β and HP1γ) | effects on levels and distribution of H3K27me1 (H3K27me1) | reduction of CpG methylation at major satellite repeats [1] | effects on levels and distribution of H4K20me3 (H4K20me3)
1 | Biotin-EDDSYEAR[Lys(Me3)]SFLTKYFNKQP [ADNPK767me3, methylated ADNP peptide used for pulldown] | does not bind |  |  |  |  |  |  | 
2 | ADNP siRNA: sense 5′ - [GAUUCUUAUGAGGCUAGGA] RNA [TT] DNA, antisense 5′ - [UCCUAGCCUCAUAAGAAUC] RNA [TT] DNA (RNA, 3' dTdT, backbone not given here) [sense 5′ - [GAUUCUUAUGAGGCUAGGA]; RNA [TT]; DNA, antisense 5′ - [UCCUAGCCUCAUAAGAAUC]; DNA] |  | significant reduction | elevated | no effects | appeared normal | no effects | no reduction | no effects
